In test [1] the test system is MCF7. As to the kind of experiment: Cytotoxicity against human MCF7 cells assessed as reduction in cell growth incubated for 24 hrs by MTT assay. It is filed as functional, cell-based. The settings on record: MCF7, 24 h. (In general: Formazan colour is commonly taken as a measure of viable cells.)
Test [2] has as its system MDA-MB-231. As to the kind of experiment: Cytotoxicity against human MDA-MB-231 cells assessed as reduction in cell growth incubated for 24 hrs by MTT assay. The test is classed as functional, cell-based. The settings on record: MDA-MB-231, 24 h.
The test system of test [3] is A549. As to the kind of experiment: Cytotoxicity against human A549 cells assessed as reduction in cell growth incubated for 24 hrs by MTT assay. The test is classed as functional, cell-based. The settings on record: A549, 24 h.
Test [4] deals with A549. The test can be described thus: Antiproliferative activity against human A549 cells assessed as reduction in cell growth incubated for 72 hrs by SRB assay. The following applies: A549, 72 h. It is filed as functional, cell-based. A general note: In SRB staining, fixed cells bind dye roughly in proportion to their protein.
The subject of test [5] is SK-HEP1. The test can be described thus: Antiproliferative activity against human SK-HEP1 cells assessed as reduction in cell growth incubated for 72 hrs by SRB assay. The test is classed as functional, cell-based. The settings on record: SK-HEP1, 72 h.
In test [6] the test system is HCT-116. As to the kind of experiment: Antiproliferative activity against human HCT-116 cells assessed as reduction in cell growth incubated for 72 hrs by SRB assay. It is filed as functional, cell-based. The settings on record: HCT-116, 72 h.
The test system of test [7] is SNU-638. As to the kind of experiment: Antiproliferative activity against human SNU-638 cells assessed as reduction in cell growth incubated for 72 hrs by SRB assay. The test is classed as functional, cell-based. The settings on record: SNU-638, 72 h.
Test [8] relates to MDA-MB-231. As to the kind of experiment: Antiproliferative activity against human MDA-MB-231 cells assessed as reduction in cell growth incubated for 72 hrs by SRB assay. It is filed as functional, cell-based. The following applies: MDA-MB-231, 72 h.
Test [9] deals with PC-3. The test can be described thus: Antiproliferative activity against human PC-3 cells assessed as reduction in cell growth incubated for 72 hrs by SRB assay. The settings on record: PC-3, 72 h. It is filed as functional, cell-based.
Test [10] deals with SARS-CoV-2. As to the kind of experiment: Antiviral activity against SARS-CoV-2 infected in African green monkey Vero E6 cells assessed as inhibition of viral replication by qRT-PCR analysis. It is filed as functional, organism-based. The following applies: Severe acute respiratory syndrome coronavirus 2, Vero C1008. A general note: Quantitative PCR measures a nucleic acid by following its amplification.

The test system of test [11] is SK-HEP1. The test can be described thus: Cytotoxicity against human SK-HEP1 cells. It is filed as functional, cell-based.
For test [12], the system named is A549. As to the kind of experiment: Cytotoxicity against human A549 cells. The test is classed as functional, cell-based.
In test [13] the test system is HCT-116. As to the kind of experiment: Cytotoxicity against human HCT-116 cells. It is filed as functional, cell-based.
Test [14] has as its system Ishikawa. As to the kind of experiment: Cytotoxicity against human Ishikawa cells. It is filed as functional, cell-based.
The test system of test [15] is HeLa. The test can be described thus: Antiproliferative activity against human HeLa cells assessed as reduction in cell viability incubated for 24 hrs by MTT assay. It is filed as functional, cell-based.
In test [16] the test system is PANC-1. As to the kind of experiment: Antiproliferative activity against human PANC-1 cells assessed as reduction in cell viability incubated for 24 hrs by MTT assay. The following applies: PANC-1, 24 h. The test is classed as functional, cell-based.
For test [17], the system named is L929. The test can be described thus: Cytotoxicity against mouse L929 cells assessed as reduction in cell viability. The test is classed as functional, cell-based.
Test [18] concerns HeLa. The test can be described thus: Cytotoxicity against human HeLa cells. The test is classed as functional, cell-based.
Test [19] relates to MCF7. As to the kind of experiment: Antiproliferative activity against human MCF7 cells assessed as cell growth inhibition incubated for 48 hrs by MTT assay. It is filed as functional, cell-based. The settings on record: MCF7, 48 h.
In test [20] the target is PRMT5/MEP50 complex (Homo sapiens, UniProt O14744). The test can be described thus: Inhibition of PRMT5/MEP50 (unknown origin). The test is classed as cell-based, HCC4006.
Test [21] concerns Z-138. As to the kind of experiment: Antiproliferative activity against human Z138 cells assessed as cell growth inhibition incubated for 48 hrs by MTT assay. The test is classed as functional, cell-based. The following applies: Z-138, 48 h.
Test [22] has as its system MCF7. As to the kind of experiment: cells. The following applies: Homo sapiens, MCF7, 48 h.
The test system of test [23] is PC-3. As to the kind of experiment: cells. The settings on record: Homo sapiens, PC-3, 48 h.
The subject of test [24] is IMR-32. The test can be described thus: Cytotoxicity against human IMR-32 cells assessed as reduction in cell viability incubated for 48 hrs by MTT assay. It is filed as functional, cell-based. The following applies: IMR-32, 48 h.
For test [25], the system named is PC-3. The test can be described thus: Antiproliferative activity against human PC-3 cells assessed as reduction in cell growth incubated for 24 hrs by MTT assay. It is filed as functional, cell-based. The settings on record: PC-3, 24 h.
Test [26] deals with U-937. The test can be described thus: Cytotoxicity against human U-937 cells assessed as reduction in cell growth incubated for 72 hrs by MTT assay. The test is classed as functional, cell-based. The settings on record: U-937, 72 h.
The subject of test [27] is HCT-116. As to the kind of experiment: Cytotoxicity against human HCT-116 cells assessed as reduction in cell growth incubated for 72 hrs by MTT assay. The test is classed as functional, cell-based. The following applies: HCT-116, 72 h.
The nature of test [28]: Inhibition of Hepatitis C virus NS5B polymerase. On the set-up: species or system Hepacivirus hominis.
For test [29], the system named is A549. The test can be described thus: Cytotoxicity against human A549 cells assessed as reduction in cell viability measured for 48 hrs by MTT assay. The test is classed as functional.
The test system of test [30] is MCF7. The test can be described thus: Cytotoxicity against human MCF7 cells assessed as reduction in cell viability measured for 48 hrs by MTT assay. The test is classed as functional.
Test [31] concerns MDA-MB-231. The test can be described thus: Anticancer activity against human MDA-MB-231 cells. The test is classed as functional, cell-based.
Test [32] has as its system U-87 MG. As to the kind of experiment: Cytotoxicity against human U-87 MG cells. It is filed as functional, U-87MG ATCC.
Test [33] has as its system PANC-1. As to the kind of experiment: Cytotoxicity against human PANC-1 cells. The test is classed as functional.

Chain of PRMT5/MEP50 complex (O14744 whole entry): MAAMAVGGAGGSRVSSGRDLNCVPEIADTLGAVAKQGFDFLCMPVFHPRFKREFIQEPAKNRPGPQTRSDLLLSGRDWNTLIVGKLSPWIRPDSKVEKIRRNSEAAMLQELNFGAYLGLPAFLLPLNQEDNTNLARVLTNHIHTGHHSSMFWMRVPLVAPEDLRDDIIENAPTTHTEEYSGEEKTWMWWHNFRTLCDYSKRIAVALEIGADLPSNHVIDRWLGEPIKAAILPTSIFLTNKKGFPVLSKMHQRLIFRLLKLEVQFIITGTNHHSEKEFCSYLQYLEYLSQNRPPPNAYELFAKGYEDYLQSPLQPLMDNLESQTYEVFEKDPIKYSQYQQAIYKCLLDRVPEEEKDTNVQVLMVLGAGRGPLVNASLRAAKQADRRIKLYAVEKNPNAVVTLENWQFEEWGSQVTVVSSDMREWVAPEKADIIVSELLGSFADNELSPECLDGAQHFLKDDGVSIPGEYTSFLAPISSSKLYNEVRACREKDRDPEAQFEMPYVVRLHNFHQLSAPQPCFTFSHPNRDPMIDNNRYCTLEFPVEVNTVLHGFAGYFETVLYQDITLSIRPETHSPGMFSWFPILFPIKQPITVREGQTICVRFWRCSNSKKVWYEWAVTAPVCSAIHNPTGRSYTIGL
Chain of PRMT5/MEP50 complex (Q9BQA1 whole entry, further chain): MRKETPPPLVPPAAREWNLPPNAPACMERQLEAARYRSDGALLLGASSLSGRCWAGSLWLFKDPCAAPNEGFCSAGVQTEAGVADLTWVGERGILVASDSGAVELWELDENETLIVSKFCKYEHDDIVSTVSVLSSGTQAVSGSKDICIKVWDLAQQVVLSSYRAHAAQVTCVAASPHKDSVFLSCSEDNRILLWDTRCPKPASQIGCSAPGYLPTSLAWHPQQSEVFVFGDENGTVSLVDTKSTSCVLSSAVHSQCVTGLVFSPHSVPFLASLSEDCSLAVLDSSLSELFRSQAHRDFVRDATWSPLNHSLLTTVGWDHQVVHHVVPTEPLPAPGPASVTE

Regarding `CC(=O)Nc1ccn(-c2nnc(Cn3cnc4c3c(=O)n(C)c(=O)n4C)o2)c(=O)n1`, the values for the IC50 in [1], in test [2] and in test [3] were 25200 nM, 24700 nM and 20400 nM, respectively.
As to `C#Cc1cn([C@@H]2S[C@H](CO)[C@@H](O)[C@H]2O)c2ncnc(N)c12`, the IC50 in [4] was determined as 60 nM; in test [5] it was 50 nM; in [6] it was 30 nM; in [7], 30 nM; in test [8], 50 nM; in test [9], 4 nM.
As for `[2H]C([2H])(O)[C@H]1O[C@@](C#N)(c2ccc3c(N)ncnn23)[C@H](O)[C@@H]1O`, the EC50 in test [10] came out at 250 nM.
`Nc1ncnc2c1c1sc3c4sccc4sc3c1n2[C@H]1C[C@@H](O)[C@@H](CO)O1`: the figures for the IC50 in test [11], in test [12] and in [13] were 480 nM, 14200 nM and 1910 nM, respectively.
In the case of `O=c1[nH]c(=O)n(C[C@H](O)CO)cc1C#Cc1cc2ccccc2c2ccccc12`, the IC50 in [14] came to 50200 nM; in test [15], 39300 nM; in test [16], 39300 nM; in test [17] it was 38400 nM; in test [18], 39300 nM.
`Cc1ncnc2c1ccn2[C@@H]1O[C@@H]2[C@H](Cc3ccc4cc(Br)c(N)nc4c3)OC[C@]2(O)[C@H]1O`: the half-maximal inhibitory concentration (IC50) was determined as 3 nM in [19], 0.8 nM in test [20] and 15 nM in test [21].
On to `C[C@H](CCC(=O)OCc1cn(C[C@H]2O[C@@H](n3ccc(=O)[nH]c3=O)[C@@H]3OC(C)(C)O[C@@H]32)nn1)[C@H]1CC[C@H]2[C@@H]3[C@H](O)C[C@@H]4C[C@H](O)CC[C@]4(C)[C@H]3C[C@H](O)[C@]12C`, for which the IC50 in test [22] was 8080 nM; in test [23] it was 17900 nM; in test [24], 16800 nM; in [15], 96000 nM; in [25] it was 17900 nM.
Take `Nc1ncnc2c1ncn2Cc1ccc(-c2cn(CCCCCCC(=O)NO)nn2)cc1`: the IC50 in [26] is 1320 nM; in [27], 17400 nM.
In the case of `Nc1ncnc2c1ncn2[C@@H]1OC2(CC[C@H]2O)[C@@H](O)[C@H]1O` (stereo not given in full), the IC50 in test [20] came to 900 nM.
`C#C[C@@]1(N)[C@H](O)[C@@H](CO)O[C@H]1n1cnc2c(=O)[nH]c(N)nc21` displayed an IC50 in [28] of 1100 nM.
`CCCCCCCCCCCCc1ccc(-n2cc(CNCCO)nn2)cc1`: the IC50 stood at 4900 nM in test [16] and 11000 nM in test [25].
Consider `C=C(N)NCCOc1cccc2c1Nc1nc(=O)n([C@@H]3O[C@H](CO)[C@@H](O)[C@H]3O)cc1O2`, for which the CC50 is 800 nM in [29] and 4300 nM in [30].
Take `[N-]=[N+]=N[C@@H]1[C@@H](O)[C@H](n2c(-c3c4ccccc4cc4ccccc34)nc3ccccc32)O[C@@H]1CO`: in test [31], the IC50 stood at 420 nM.
As to `COc1cccc2c1C(=O)c1c(O)c3c(c(O)c1C2=O)C[C@@](O)(C(=O)CO)C[C@@H]3O[C@H]1C[C@H](N)[C@H](O)[C@H](C)O1` [DOXORUBICIN], the results for the CC50 in [29] and in test [30] were 30 nM and 900 nM, respectively. Besides, the IC50 in [22] came out at 440 nM; in test [23] it was 336 nM; in [24], 43 nM.
As to `Nc1ccn([C@@H]2O[C@H](CO)[C@@H](O)C2(F)F)c(=O)n1` [GEMCITABINE], the IC50 in [14] amounted to 20300 nM; in [17] it was 230 nM; in [18], 240 nM.
Turning to `Nc1ccn([C@@H]2S[C@H](CO)[C@@H](O)[C@@H]2O)c(=O)n1` [THIARABINE], the CC50 in test [32] and in [33] was 590 nM in each case.

As a reminder, the IC50 is the concentration that gives 50% inhibition. The term EC50 denotes the concentration at which the effect is half-maximal. By CC50 is commonly meant the concentration that lowers cell viability or growth by half.

(Values after ChEMBL document CHEMBL5550081, “Is it still worth renewing nucleoside anticancer drugs nowadays?” (Eur J Med Chem, 2024).)
